pEC50: −log10 of the molar value. Like-named read-outs stand apart in the source and are kept apart here.
Assays:
human RORγ = target: T1, human RORγ (Homo sapiens, UniProt P51449); test: In vitro assay of inhibitory effect against RORγ transcriptional activity (GAL4-hRORγ LBD luciferase reporter gene assay in CHO cells); type: cell-based; conditions: for hRORγ luciferase activity, %-of-control: vehicle-control 0.2% DMSO alone = 100%
T1 construct: human RORγ, from Ser253 to Lys518; expressed in transfected cells; host or cells: CHO cells (Chinese hamster ovary), transient co-transfection with pG5-Luc
T1 sequence (P51449 253-518): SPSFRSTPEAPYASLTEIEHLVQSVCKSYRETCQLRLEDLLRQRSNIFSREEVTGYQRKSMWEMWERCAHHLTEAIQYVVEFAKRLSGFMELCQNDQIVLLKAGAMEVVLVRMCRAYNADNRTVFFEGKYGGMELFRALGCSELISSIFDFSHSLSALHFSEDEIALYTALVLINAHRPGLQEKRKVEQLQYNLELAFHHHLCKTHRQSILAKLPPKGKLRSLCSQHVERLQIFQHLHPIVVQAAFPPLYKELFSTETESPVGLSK
Procedure, shortened: (§1)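 Transcriptional activity of human or mouse RORγ LBD, tethered to the GAL4 DNA-binding domain, is monitored by a GAL4-dependent firefly luciferase reporter in transiently transfected CHO cells. Test articles are incubated for 2 days; values are %-of-control or fitted EC50.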

mouse RORγ = target: T2, mouse RORγ (Mus musculus, UniProt P51450); test: In vitro assay of inhibitory effect against RORγ transcriptional activity (GAL4-mRORγ LBD luciferase reporter gene assay in CHO cells); type: cell-based; conditions: for mRORγ luciferase activity, %-of-control: vehicle-control 0.2% DMSO alone = 100%
T2 construct: mouse RORγ, from Ile251 to Lys516; expressed in transfected cells; host or cells: CHO cells (Chinese hamster ovary), transient co-transfection with pG5-Luc
T2 sequence (P51450 251-516): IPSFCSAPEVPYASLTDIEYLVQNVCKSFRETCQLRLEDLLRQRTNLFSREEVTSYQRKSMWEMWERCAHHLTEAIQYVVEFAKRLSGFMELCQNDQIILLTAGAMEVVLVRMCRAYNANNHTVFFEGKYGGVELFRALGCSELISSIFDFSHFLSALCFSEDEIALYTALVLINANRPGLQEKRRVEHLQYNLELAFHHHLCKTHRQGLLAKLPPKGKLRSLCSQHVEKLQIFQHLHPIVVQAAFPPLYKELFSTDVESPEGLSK
Procedure, shortened: as §1

[1] = GAL4-hRORγ LBD / pG5-Luc in CHO cells, 2 days incubation
[2] = GAL4-mRORγ LBD / pG5-Luc in CHO cells, 2 days incubation
[3] = GAL4-hRORγ LBD luciferase reporter, CHO cells, read-out: LUC EC50 hRORγ
[4] = GAL4-mRORγ LBD luciferase reporter, CHO cells, read-out: LUC EC50 mRORγ
[5] = value in parentheses beside the > EC50 bound
[6] = value in parentheses beside the EC50 bound

Row | pEC50 (human RORγ; [1]) | pEC50 (mouse RORγ; [2]) | pEC50 (human RORγ; [3]) | pEC50 (mouse RORγ; [4]) | further results | SMILES
1 | 7.68 | 7.62 |  |  |  | CC(C)C1=CN(CC(C)(C)CC(=O)O)C(=O)N[C@@]1(C)c1ccc(CCC(C)(C)C)c(Cl)c1 [Example 36]
2 |  |  | 7.40 | 7.62 |  | CC(C)C1=CN(CCC(=O)O)C(=O)N[C@@]1(C)c1ccc(C#CC(C)(C)C)c(Cl)c1 [Example 317]
3 |  |  | 8.52 | 8.22 |  | COCC(C)C1=CN(CCC(=O)O)C(=O)N[C@@]1(C)c1ccc(CCC(C)(C)C)c(Cl)c1 (single isomer, unassigned) [Example 305]
4 |  |  | 7.42 | 7.49 |  | CC(C)C1=CN(C23CCC(C(=O)O)(C2)C3)C(=O)N[C@@]1(C)c1ccc(CCC(C)(C)C)c(C(F)(F)F)c1 [Example 314]
5 | 5.82 | 5.54 |  |  |  | CC(C)(C)CCc1ccc([C@@]2(C)NC(=O)N([C@H]3C[C@H](C(=O)O)C3)C=C2C2CCOCC2)cc1Cl [Example 99]
6 | < 5.10 | < 5.10 |  |  | hRORγ luciferase activity, %-of-control (human RORγ; [5]): (90%); mRORγ luciferase activity, %-of-control (mouse RORγ; [5]): (84%) | CC(C)C1=CN(CCC(=O)O)C(=O)N[C@]1(C)c1ccc(C2CCCCC2)c(Cl)c1 [Example 135]
7 | 7.89 | 7.74 |  |  |  | CC(C)C1=CN(CC2(C(=O)O)CC2)C(=O)N[C@@]1(C)c1ccc(CCC(C)(C)C)c(Cl)c1 [Example 98]
8 |  |  | 7.36 | 7.21 |  | CC(C)C1=CN(c2cc(C(=O)O)nn2C)C(=O)N[C@@]1(C)c1ccc(CCC(C)(C)C)c(Cl)c1 [Example 297]
9 |  |  | 5.56 | 5.82 |  | CC(C)(C)CCc1ccc([C@]2(C)NC(=O)N(CCC(=O)O)C=C2C2CC(C)(C)OC(C)(C)C2)cc1Cl [Example 284]
10 |  |  | 6.65 | 7.12 |  | CC(C)N1C=C(CCC(=O)O)[C@](C)(c2ccc(CCC(C)(C)C)c(Cl)c2)NC1=O [Example 230]
11 | 5.29 | 5.37 |  |  |  | CC(C)(C)CCc1ccc([C@@]2(C)NC(=O)N(CCCC(=O)O)C=C2C2CC2)cc1Cl [Example 56]
12 | 7.96 | 7.66 |  |  |  | CC(C)(C)CCc1ccc(C2(C)NC(=O)N(C3CCC3)C=C2C(C)(C)CCC(=O)O)cc1Cl (single isomer, unassigned) [Example 184]
13 |  |  | 7.00 | 7.14 |  | COCCN1C=C(c2ccc(C(=O)O)cc2)[C@](C)(c2ccc(CCC(C)(C)C)c(Cl)c2)NC1=O [Example 225]
14 | 7.26 | 7.49 |  |  |  | CC(C)C1=CN(CCCC(=O)O)C(=O)NC1(C)c1ccc(OCC(C)(C)C)c(Cl)c1 (racemic) [Example 9]
15 | 7.59 | 7.34 |  |  |  | CC(C)(C)CCc1ccc([C@]2(C)NC(=O)N(CCCC(=O)O)C=C2C2CCCCC2)cc1Cl [Example 32]
16 |  |  | 7.35 | 7.15 |  | COC(=O)[C@H]1C[C@H](N2C=C(C(C)(C)CCCO)[C@](C)(c3ccc(CCC(C)(C)C)c(Cl)c3)NC2=O)C1 (single isomer, unassigned) [Example 191]
17 |  |  | 6.76 | 7.22 |  | COCCC1=CN([C@H]2CC[C@H](C(=O)O)CC2)C(=O)N[C@@]1(C)c1ccc(CCC(C)(C)C)c(C(F)(F)F)c1 [Example 325]
18 | 6.25 | 6.08 |  |  |  | CC(C)CCC1=CN(CCCC(=O)O)C(=O)N[C@]1(C)c1ccc(CCC(C)(C)C)c(Cl)c1 [Example 43]
19 |  |  | < 5.10 | < 5.10 | hRORγ luciferase activity, %-of-control (human RORγ; [6]): (68%); mRORγ luciferase activity, %-of-control (mouse RORγ; [6]): (81%) | COc1cc([C@@]2(C)NC(=O)N(CCC(=O)O)C=C2C(C)C)ccc1CCC(C)(C)C [Example 212]
20 | 7.38 | 7.39 |  |  |  | CC(C)(C)CCc1ccc(C2(C)NC(=O)N(CCCC(=O)O)C=C2CC(C)(C)C)cc1Cl (racemic) [Example 23]
21 |  |  | 7.22 | 7.29 |  | CC(C)CC1=CN(CCC(=O)O)C(=O)N[C@@]1(C)c1ccc(OCC(C)(C)C)c(Cl)c1F [Example 201]
22 | 7.74 | 7.64 |  |  |  | CC(C)C1=CN(CCC(=O)O)C(=O)NC1(C)c1ccc(C2=CC(C)(C)CCC2)c(Cl)c1 (single isomer, unassigned) [Example 151]

Row | pEC50 (human RORγ; [1]) | pEC50 (mouse RORγ; [2]) | pEC50 (human RORγ; [3]) | pEC50 (mouse RORγ; [4]) | further results | SMILES
23 | 5.41 | 5.70 |  |  |  | CC(C)C1=CN([C@H]2C[C@H](CC(=O)O)C2)C(=O)N[C@]1(C)c1ccc(CCC(C)(C)C)c(Cl)c1 (single isomer, unassigned) [Example 107]
24 | 5.44 | 5.57 |  |  |  | CC(C)C1=CN([C@H]2CC[C@@H](C(=O)O)CC2)C(=O)N[C@]1(C)c1ccc(CCC(C)(C)C)c(Cl)c1 [Example 66]
25 | 5.99 | 6.61 |  |  |  | CC(C)C1=CN(CCC(=O)O)C(=O)N[C@@]1(C)c1ccc(C2=CCCC2)c(Cl)c1 [Example 149]
26 |  |  | 7.74 | 7.72 |  | CC(C)(C)CCc1ccc([C@]2(C)NC(=O)N(C34CC(C(=O)O)(C3)C4)C=C2C2CC(F)(F)C2)cc1Cl [Example 316]
27 |  |  | 7.29 | 7.13 |  | COCCC(C)(C)CC1=CN(c2ccc(C(=O)O)cc2)C(=O)N[C@@]1(C)c1ccc(CCC(C)(C)C)c(Cl)c1 [Example 209]
28 | 7.15 | 7.57 |  |  |  | CC(C)C1=CN(CCC(=O)O)C(=O)N[C@@]1(C)c1ccc(C2=CCCCC2)c(Cl)c1 [Example 134]
29 | 7.51 | 7.55 |  |  |  | CC(C)C1=CN([C@H]2C[C@H](C(=O)O)C2)C(=O)N[C@@]1(C)c1ccc(CCC(C)(C)C)c(Cl)c1 [Example 42]
30 |  |  | < 4.70 | < 4.70 | hRORγ luciferase activity, %-of-control (human RORγ; [6]): (89%); mRORγ luciferase activity, %-of-control (mouse RORγ; [6]): (87%) | CC(C)C1=CN(CCC(=O)O)C(=O)N[C@@]1(C)c1ccc(S(=O)(=O)C2CCCC2)c(Cl)c1 [Example 227]
31 |  |  | 6.15 | 6.18 |  | CC(C)C1=CN(C2CNCC2C(=O)O)C(=O)N[C@@]1(C)c1ccc(CCC(C)(C)C)c(Cl)c1 (single isomer, unassigned) [Example 238]
32 | 7.64 | 7.77 |  |  |  | CC(C)C1=CN(CCCC(=O)O)C(=O)NC1(C)c1ccc(OCC(C)(C)C)c(Cl)c1 (single isomer, unassigned) [Example 12]
33 | < 5.49 | < 5.49 |  |  | hRORγ luciferase activity, %-of-control (human RORγ; [5]): (65%); mRORγ luciferase activity, %-of-control (mouse RORγ; [5]): (50%) | CC(C)C1=CN([C@H]2C[C@H](C(=O)O)C2)C(=O)N[C@]1(C)c1cc(Cl)c(CCC(C)(C)C)cc1F [Example 103]
34 |  |  | 7.37 | 7.33 |  | CC(C)C1=CN(c2ccc(C(=O)O)cc2)C(=O)N[C@@]1(C)c1ccc(CCC(C)(C)C)c(C(F)(F)F)c1 [Example 271, 4-{(S)-4-[4-(3,3-Dimethyl-butyl)-3-trifluoromethyl-phenyl]-5-isopropyl-4-methyl-2-oxo-3,4-dihydro-2H-pyrimidin-1-yl}-benzoic Acid]
35 |  |  | 7.20 | 7.57 |  | COCC(C)C1=CN(CCC(=O)O)C(=O)N[C@@]1(C)c1ccc(CCC(C)(C)C)c(Cl)c1 (single isomer, unassigned) [Example 306]
36 | 7.80 | 7.80 |  |  |  | CC(C)C1=CN(CC[C@@H](O)C(=O)O)C(=O)N[C@@]1(C)c1ccc(CCC(C)(C)C)c(Cl)c1 [Example 89]
37 | < 5.10 | < 5.10 |  |  | hRORγ luciferase activity, %-of-control (human RORγ; [5]): (92%); mRORγ luciferase activity, %-of-control (mouse RORγ; [5]): (81%) | CC(C)C1=CN(CCC(C)(C)C(=O)O)C(=O)N[C@]1(C)c1ccc(CCC(C)(C)C)c(Cl)c1 [Example 54]
38 | 6.84 | 6.57 |  |  |  | CC(C)C1=CN([C@@H]2CC(=O)N(CC(=O)O)C2)C(=O)N[C@@]1(C)c1ccc(CCC(C)(C)C)c(Cl)c1 [Example 163]
39 |  |  | 6.91 | 7.37 |  | COCCC1=CN(C23CC(C(=O)O)(C2)C3)C(=O)N[C@@]1(C)c1ccc(CCC(C)(C)C)c(C(F)(F)F)c1 [Example 340]
40 |  |  | 7.74 | 7.80 |  | CC(C)C1=CN([C@@H](C)CC(=O)O)C(=O)N[C@@]1(C)c1ccc(CCC(C)(C)C)c(Cl)c1 [Example 247]
41 |  |  | 7.74 | 7.72 |  | CC(C)C1=CN(c2ccc(C(=O)O)cc2)C(=O)N[C@@]1(C)c1cc(F)c(OCC(C)(C)C)c(Cl)c1 [Example 193]
42 |  |  | 6.97 | 6.83 |  | CC(C)C1=CN(C2CN(S(C)(=O)=O)CC2C(=O)O)C(=O)N[C@@]1(C)c1ccc(CCC(C)(C)C)c(Cl)c1 (single isomer, unassigned) [Example 240]
43 |  |  | 6.16 | 6.34 |  | CC(C)(C)CCc1ccc([C@]2(C)NC(=O)N(c3ccncc3)C=C2CCC(=O)O)cc1Cl [Example 231]

— patent US10196363B2, “Dihydropyrimidin-2-one compounds and medical use thereof” (JAPAN TOBACCO INC., priority 2014, dated 2019)
